Structures are written as SMILES.

The target in one assay is T1, human GSK3α (Homo sapiens, UniProt P49840).
T1 construct: Full length human GSK3α or GSK3B expressed as N-terminal GST fusion proteins; GST (N); purchased Carna Biosciences (Japan); host or cells: baculovirus host
Put plainly: In vitro enzymatic activity assay, GSK3α. In kind it is biochemical. As to conditions: 1.0 mM ATP, 1.0 μM peptide substrate, 120 min, 25° C, read-out: Enzyme GSK3α (IC50). The procedure:
(§1) Full length human GSK3α or GSK3B expressed as N-terminal GST fusion proteins in baculovirus host were purchased from Carna Biosciences (Japan). The kinase was pre-incubated with ATP (adenosine-5′-triphosphate) for 45 min, then incubated with tested compounds for another 45 min in assay buffer that contains 100 mM HEPES (N-2-hydroxyethylpiperazine-N′-2-ethanesulfonic acid), pH 7.5, 10 mM MgCl2, 1.0 mM DTT, and 0.015% Briji-35. […] Percent inhibition was plotted against compound concentration to generate 10-point dose response curve with 3-fold serial dilution starting from 10 μM. IC50 value was determined from the 4-parameter logistic curve fitting.

The next assay has as its target T2, GSK3A (Homo sapiens, UniProt P49840).
T2 construct: expressed in transfected cells
Put plainly: NanoBRET cellular target engagement assay, Nanoluc-GSK3A in HEK293 cells. In kind it is cell-based. The conditions noted are these: NanoBRET GSK3α IC50, HEK293 cells, tracer K-8, 2 hours, 37° C. How it is done: (§2) In the assay, HEK293 cells stably expressing either Nanoluc-GSK3A or Nanoluc-GSK3B were maintained in culture media and seeded, using a multidrop dispenser, at a density of 5×10^3 cells per well in 384-well white plates with 100 ng/ml doxycycline (Sigma) overnight.
(§3) Compound was first diluted in DMSO to generate a 9-point serial dilution then diluted to 10× final concentration in Opti-MEM™ (Gibco). After overnight incubation, cell medium was aspirated from the seeded cells using a microplate automatic washer, then 27 μL of pre-warmed Opti-MEM™ with kinase tracer (K-8) and 3 μL of Opti-MEM™ diluted DMSO or compounds were added per well. Plates were protected from light, mixed in an orbital shaker for 3 min at RT and incubated at 37° C., 5% CO2 in a humidified incubator for 2 hours. After acclimation at RT for 15 min, 15 μL of 3× complete NanoBRET™ Nano-Glo Substrate/Inhibitor (Promega) was added per well. Plates were mixed in an orbital shaker for 3 min at RT and incubated for an additional 30 min. Donor emission at 460 nm and acceptor emission at 647 nm were measured in EnVision multilabel plate reader (Perkin Elmer).

The target of assay [1] is T3, GSK3B (Homo sapiens, UniProt P49841). Put plainly: NanoBRET cellular target engagement assay, Nanoluc-GSK3B in HEK293 cells. Format: cell-based. Set-up: expressed in transfected cells. As to conditions: NanoBRET GSK3β IC50, HEK293 cells, tracer K-8, 2 hours, 37° C. The procedure: as §2, §3
The target in assay [2] is T3, GSK3B. The experiment in a line: In vitro enzymatic activity assay, GSK3β. In kind it is biochemical. Set-up: Full length human GSK3α or GSK3B expressed as N-terminal GST fusion proteins; GST (N); purchased Carna Biosciences (Japan); host or cells: baculovirus host. The conditions noted are these: 1.0 mM ATP, 1.0 μM peptide substrate, 120 min, 25° C, read-out: Enzyme GSK3β (IC50). The procedure: as §1

T2 sequence (P49840 whole entry): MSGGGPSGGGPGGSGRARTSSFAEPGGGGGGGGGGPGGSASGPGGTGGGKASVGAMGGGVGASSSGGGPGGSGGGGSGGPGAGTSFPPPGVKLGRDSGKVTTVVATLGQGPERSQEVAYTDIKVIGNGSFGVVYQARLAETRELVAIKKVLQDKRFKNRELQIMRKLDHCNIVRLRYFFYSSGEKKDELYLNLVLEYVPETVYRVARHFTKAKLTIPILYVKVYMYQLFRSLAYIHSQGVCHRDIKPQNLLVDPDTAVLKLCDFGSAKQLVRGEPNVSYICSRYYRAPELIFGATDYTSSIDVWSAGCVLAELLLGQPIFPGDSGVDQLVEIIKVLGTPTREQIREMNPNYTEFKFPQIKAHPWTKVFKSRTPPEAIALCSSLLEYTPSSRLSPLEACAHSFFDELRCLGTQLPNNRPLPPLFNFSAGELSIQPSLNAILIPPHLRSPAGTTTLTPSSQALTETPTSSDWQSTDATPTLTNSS
T1 sequence (P49840 whole entry, the tested form may be a part): as the sequence (P49840 whole entry) above
T3 sequence (P49841 whole entry, the tested form may be a part): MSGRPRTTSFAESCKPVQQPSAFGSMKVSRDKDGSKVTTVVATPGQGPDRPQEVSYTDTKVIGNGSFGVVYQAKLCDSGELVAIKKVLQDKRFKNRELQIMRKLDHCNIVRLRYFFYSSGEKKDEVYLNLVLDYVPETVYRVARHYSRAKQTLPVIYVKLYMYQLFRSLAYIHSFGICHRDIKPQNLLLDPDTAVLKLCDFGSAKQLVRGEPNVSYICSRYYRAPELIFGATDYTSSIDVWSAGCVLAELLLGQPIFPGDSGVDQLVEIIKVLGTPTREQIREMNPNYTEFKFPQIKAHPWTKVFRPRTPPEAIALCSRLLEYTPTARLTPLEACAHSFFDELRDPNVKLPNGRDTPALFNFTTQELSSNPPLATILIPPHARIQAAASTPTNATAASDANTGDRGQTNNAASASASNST

With `COC[C@@H](N)c1cccc(NC(=O)c2c(N)ncn(-c3c(C)cc(OC)cc3Cl)c2=O)c1` (atropisomer, axis not shown) [Example 1, (S)-4-amino-N-(3-(1-amino-2-methoxyethyl)phenyl)-1-((S)-2-chloro-4-methoxy-6-methylphenyl)-6-oxo-1,6-dihydropyrimidine-5-carboxamide], the 50% inhibitory concentration (IC50) at human GSK3α amounted to 3.6 nM; against GSK3A, 3.6 nM; on GSK3B [1] it was 243 nM; on GSK3B [2], 168 nM.
Take `CN[C@H](C)c1cccc(NC(=O)c2c(N)ncn(-c3c(C)cc(OC)cc3Cl)c2=O)c1` (atropisomer, axis not shown) [Example 2, (R)-4-amino-1-((S)-2-chloro-4-methoxy-6-methylphenyl)-N-(3-(1-(methylamino)ethyl)phenyl)-6-oxo-1,6-dihydropyrimidine-5-carboxamide]: the concentration for half-maximal inhibition (IC50) is 7 nM at human GSK3α, 4.9 nM against GSK3A, 329 nM against GSK3B [1] and 399 nM at GSK3B [2].
For `CN[C@H](C)c1cccc(NC(=O)c2c(N)ncn(-c3c(C)cccc3Cl)c2=O)c1` (atropisomer, axis not shown) [Example 3, (R)-4-amino-1-((S)-2-chloro-6-methylphenyl)-N-(3-(1-(methylamino)ethyl)phenyl)-6-oxo-1,6-dihydropyrimidine-5-carboxamide] the same measures were 6.6 nM, 5 nM, 395 nM and 344 nM.
The corresponding values for `COC[C@@H](N)c1cccc(NC(=O)c2c(N)ncn(-c3c(Cl)cccc3C(F)F)c2=O)c1` (atropisomer, axis not shown) [Example 7, (S)-4-amino-N-(3-(1-amino-2-methoxyethyl)phenyl)-1-((S)-2-chloro-6-(difluoromethyl)phenyl)-6-oxo-1,6-dihydropyrimidine-5-carboxamide] are 7.5 nM, 7.1 nM, 480 nM and 337 nM.
For `Cc1cc(C#N)cc(Cl)c1-n1cnc(N)c(C(=O)Nc2cccc([C@@H](C)N)c2)c1=O` (atropisomer, axis not shown) [Example 8, (R)-4-amino-N-(3-(1-aminoethyl)phenyl)-1-((S)-2-chloro-4-cyano-6-methylphenyl)-6-oxo-1,6-dihydropyrimidine-5-carboxamide] the same measures were 4.8 nM, 3.3 nM, 169 nM and 204 nM.
With `CCNCc1cccc(NC(=O)c2c(N)ncn(-c3c(C)cc(C(F)F)cc3Cl)c2=O)c1` (atropisomer, axis not shown) [Example 11, 4-amino-1-((S)-2-chloro-4-(difluoromethyl)-6-methylphenyl)-N-(3-((ethylamino)methyl)phenyl)-6-oxo-1,6-dihydropyrimidine-5-carboxamide], the half-inhibitory concentration (IC50) stood at 14.4 nM at human GSK3α, 4.1 nM against GSK3A, 252 nM against GSK3B [1] and 648 nM on GSK3B [2].
For `CN[C@H](C)c1cccc(NC(=O)c2c(N)ncn(-c3c(C)cc(C(F)(F)F)cc3Cl)c2=O)c1` (atropisomer, axis not shown) [Example 33, 4-amino-1-((S)-2-chloro-6-methyl-4-(trifluoromethyl)phenyl)-N-(3-((R)-1-(methylamino)ethyl)phenyl)-6-oxo-1,6-dihydropyrimidine-5-carboxamide], the half-inhibitory concentration (IC50) at human GSK3α stood at 6.4 nM; against GSK3A it was 8.3 nM; at GSK3B [1] it was 461 nM; at GSK3B [2], 343 nM.
The corresponding values for `COc1cc(C)c(-n2cnc(N)c(C(=O)Nc3cccc([C@@H]4CCCN4)c3)c2=O)c(Cl)c1` (atropisomer, axis not shown) [Example 36, (S)-4-amino-1-((S)-2-chloro-4-methoxy-6-methylphenyl)-6-oxo-N-(3-(pyrrolidin-2-yl)phenyl)-1,6-dihydropyrimidine-5-carboxamide] are 7.3 nM, 4.4 nM, 290 nM and 302 nM.
On to `COC[C@@H](N)c1cccc(NC(=O)c2c(N)ncn(-c3c(C)cc(C#N)cc3Cl)c2=O)c1` (atropisomer, axis not shown) [Example 42, (S)-4-amino-N-(3-(1-amino-2-methoxyethyl)phenyl)-1-((S)-2-chloro-4-cyano-6-methylphenyl)-6-oxo-1,6-dihydropyrimidine-5-carboxamide], for which the IC50 at human GSK3α amounted to 4.8 nM; against GSK3A it was 2.9 nM; on GSK3B [1], 257 nM; at GSK3B [2] it was 298 nM.
The corresponding values for `CCOc1cc(C)c(-n2cnc(N)c(C(=O)Nc3cccc([C@@H](C)NC)c3)c2=O)c(Cl)c1` (atropisomer, axis not shown) [Example 71, (R)-4-amino-1-((S)-2-chloro-4-ethoxy-6-methylphenyl)-N-(3-(1-(methylamino)ethyl)phenyl)-6-oxo-1,6-dihydropyrimidine-5-carboxamide] are 6.3 nM, 4.8 nM, 353 nM and 383 nM.
The corresponding values for `CCOc1cc(C)c(-n2cnc(N)c(C(=O)Nc3cccc([C@H](N)COC)c3)c2=O)c(Cl)c1` (atropisomer, axis not shown) [Example 72, (S)-4-amino-N-(3-(1-amino-2-methoxyethyl)phenyl)-1-((S)-2-chloro-4-ethoxy-6-methylphenyl)-6-oxo-1,6-dihydropyrimidine-5-carboxamide] are 7.5 nM, 5.1 nM, 379 nM and 468 nM.
For `[2H]C([2H])([2H])NC(C)c1cncc(NC(=O)c2c(N)ncn(-c3c(C)cc(OC)cc3Cl)c2=O)c1` (single isomer, unassigned) [Example 4, (R)-4-amino-1-((S)-2-chloro-4-methoxy-6-methylphenyl)-N-(5-(1-((methyl-d3)amino)ethyl)pyridin-3-yl)-6-oxo-1,6-dihydropyrimidine-5-carboxamide or (S)-4-amino-1-((S)-2-chloro-4-methoxy-6-methylphenyl)-N-(5-(1-((methyl-d3)amino)ethyl)pyridin-3-yl)-6-oxo-1,6-dihydropyrimidine-5-carboxamide] the same measures were 3.7 nM, 1.4 nM, 109 nM and 187 nM.
Take `CNC(C)c1cncc(NC(=O)c2c(N)ncn(-c3c(Cl)cc(C#N)cc3Cl)c2=O)c1` (single isomer, unassigned) [Example 9, (R)-4-amino-1-(2,6-dichloro-4-cyanophenyl)-N-(5-(1-(methylamino)ethyl)pyridin-3-yl)-6-oxo-1,6-dihydropyrimidine-5-carboxamide or (S)-4-amino-1-(2,6-dichloro-4-cyanophenyl)-N-(5-(1-(methylamino)ethyl)pyridin-3-yl)-6-oxo-1,6-dihydropyrimidine-5-carboxamide]: the IC50 was 9.5 nM on human GSK3α, 7.4 nM at GSK3A, 430 nM at GSK3B [1] and 661 nM on GSK3B [2].
With `Cc1cc(C(F)CF)cc(C)c1-n1cnc(N)c(C(=O)Nc2cncc([C@H]3CCCCN3)c2)c1=O` (single isomer, unassigned) [Example 111, 4-amino-1-(4-((R)-1,2-difluoroethyl)-2,6-dimethylphenyl)-6-oxo-N-(5-((R)-piperidin-2-yl)pyridin-3-yl)-1,6-dihydropyrimidine-5-carboxamide or 4-amino-1-(4-((S)-1,2-difluoroethyl)-2,6-dimethylphenyl)-6-oxo-N-(5-((R)-piperidin-2-yl)pyridin-3-yl)-1,6-dihydropyrimidine-5-carboxamide], the IC50 on human GSK3α is 3 nM; against GSK3A, 2 nM.

Values taken from patent publication US20260327191A1, “GSK3a INHIBITORS AND METHODS OF USE THEREOF” (Blueprint Medicines Corporation, priority 2023, published 2026).
